{"source": "paper PMC8066102", "about": "“Metabolic Profiles of New Unsymmetrical Bisacridine Antitumor Agents in Electrochemical and Enzymatic Noncellular Systems and in Tumor Cells” (Pharmaceuticals, 2021)", "origin": "cited, not measured here", "set-up": "method as in PMID 2810109, PMID 12920162", "settings": "after UGT2B7 glucuronidation; cited from earlier work", "data": [{"smiles": "CN1CC[C@]23c4c5ccc(O)c4O[C@H]2[C@@H](O[C@@H]2O[C@H](C(=O)O)[C@@H](O)[C@H](O)[C@H]2O)C=C[C@H]3[C@H]1C5", "note": "[morphine-6-glucuronide]", "values": [{"measurement": "analgesic activity relative to morphine", "result": 650, "unit": "fold"}]}]}
